Measured values taken from patent publication US20260000642A1 (Tay Therapeutics Limited, priority 2022, published 2026).

Tests used:
BRD4 BD2 = biological target: T1, BRD4 BD2 (Homo sapiens, UniProt O60885); test: NanoBRET bromodomain assay, NanoLuc-BRD4-BD2 fusion vector in HEK293 cells; type: cell-based; conditions: for BRD4 BD2% Activity Remaining @ 10 uM: first and second (2) batches; for Fold selectivity: IC50 for BRD4 BD1 divided by IC50 for BRD4 BD2, qualitative if an IC50 is at the upper limit; for IC50: NanoBRET, HEK293 cells, top concentration 10 μM
T1 construct: HEK293 cells were transfected using NanoLuc-BRD4-BD1 or NanoLuc-BRD4-BD2 fusion vectors; host or cells: HEK293
Description: (§1) Bromodomain Assay Procedure

[1] = Plasma stability assay, rat plasma; type: in vitro ADME; conditions: 37° C., Method 2 (10 μM)
Protocol: Exemplary compounds of the disclosure are stable upon incubation in mouse plasma. Stability is expressed as a % remaining after 120 minutes. The experimental methods and results (Table 2) are provided hereinafter.
Plasma Stability Assay, Method 1
From stock solution of compound in 10 mM DMSO, a working solution of 1 mM is prepared by diluting the compound in DMSO. To 398 μL of plasma pre-warmed at 37° C. for 15 minutes), 2 μL of working solution of compound is added, resulting in a final concentration of 5 μM (0.5% DMSO) for the compound. The sample is then incubated at 37° C. Aliquot is withdrawn at specified time-points (0, 15, 30, 60 and 120 mins). The reaction is stopped by addition of 450 μL cold acetonitrile containing internal standard (IS). […] Aliquots of the supernatant is analysed using LC-MS/MS. The percent remaining of the compound at each time point is calculated with respect to the control sample (0 min time-point).
Plasma Stability Assay, Method 2
A working solution of compound (500 μM) is prepared in DMSO (100%). To 735 μL of plasma, 15 μL of working solution of compound is added—resulting in a final concentration of 10 μM (2% DMSO) for the compound. The sample is then incubated at 37° C. Aliquot is withdrawn at time-points—0, 15, 30, 60, 90 and 120 mins. The reaction is stopped by using chilled acetonitrile containing internal standard (IS). The samples are centrifuged and the supernatants analyzed using LC-MS/MS. The percent remaining of the compound at each time point is calculated with respect to the control sample (0 min time-point).

[2] = Sprague-Dawley rat pharmacokinetics (IV and PO); type: in vivo; conditions: male Sprague-Dawley rats, cassette mode, Method 1; for IV T1/2: IV 1 mg/kg; for PO F (%) / bioavailability: PO 5 mg/kg (IV 1 mg/kg); for bioavailability: rat, plasma, read-out: PO F (%)
Description: BET protein inhibitors with a long half-life and good oral bioavailability in in vivo DMPK parameters are promising oral drug candidates. Some of the exemplary compounds of the current disclosure have a long half-life and good oral bioavailability in in vivo DMPK parameters in the Sprague-Dawley rat following intravenous (IV) and oral (PO) dosing. The experimental methods and results (Table 5) are provided hereinafter.
Sprague-Dawley Rat Pharmacokinetics, Method 1
Compounds were formulated in 5% DMSO, 40% PEG-400, 55% Milli-Q water at a concentration of 0.2 mg/mL for IV and at 0.5 mg/mL for PO. Two male Sprague-Dawley rats per arm were dosed with up to 5 compounds in cassette mode, which each compound being dosed at 1 mg/kg IV and 5 mg/kg PO. Blood was sampled at various timepoints and plasma isolated. 50 μL of plasma with 5 μL of blank Sprague-Dawley rat plasma were added to 200 μL of acetonitrile containing IS mixture. The samples were vortexed for 30 s. After centrifugation at 4 degrees Celsius, 3900 rpm for 15 min, the supernatant was diluted 3 times with water. 20 μL of diluted supernatant was injected into the LC/MS/MS system for quantitative analysis and concentration of analyte determined by comparison with matrix matched standard curve. WinNonlin (Phoenix™, version 8.3) or other similar software may be used for pharmacokinetic calculations.

BRD4 BD1 = biological target: T2, BRD4 BD1 (Homo sapiens, UniProt O60885); test: NanoBRET bromodomain assay, NanoLuc-BRD4-BD1 fusion vector in HEK293 cells; type: cell-based; conditions: top concentration 10 μM
T2 construct: HEK293 cells were transfected using NanoLuc-BRD4-BD1 or NanoLuc-BRD4-BD2 fusion vectors; host or cells: HEK293
Description: as §1

## CCNC(=O)c1cc(OC(C)c2ccccn2)c(C(=O)NC)[nH]1 (racemic) [Example 96, N^5-ethyl-N^2-methyl-3-(1-(pyridin-2-yl)ethoxy)-1H-pyrrole-2,5-dicarboxamide]
BRD4 BD2; listed as 96 (2)
  BRD4 BD2% Activity Remaining @ 10 uM: 64%
BRD4 BD2; listed as 96(2)*
  Fold selectivity: — (Fold ≥0 and ≤2)

## CNC(=O)c1[nH]c(C(=O)N[C@@H]2CC[C@@H](O)C2)cc1O[C@@H](C)c1ccccc1 (racemic) [Example 116, N^5-(trans-3-hydroxycyclopentyl)-N^2-methyl-3-((S)-1-phenylethoxy)-1H-pyrrole-2,5-dicarboxamide]
BRD4 BD2
  IC50: 0.05 to 0.2 µM

## CNC(=O)c1[nH]c(C(=O)NC2CCC2)cc1OC(C)c1ccc(Cl)cc1 (single isomer, unassigned) [Example 27, 3-(1-(4-chlorophenyl)ethoxy)-N^5-cyclobutyl-N^2-methyl-1H-pyrrole-2,5-dicarboxamide]
[1]
  Plasma Stability (% remaining at 120 minutes) Rat: 47%
[2]
  IV T1/2: 24 min
  PO F (%): 47%

## CNC(=O)c1[nH]c(C(=O)NC2CCC2)cc1OC(C)c1ccc(Cl)cc1 (single isomer, unassigned) [Example 28, 3-(1-(4-chlorophenyl)ethoxy)-N^5-cyclobutyl-N^2-methyl-1H-pyrrole-2,5-dicarboxamide]
BRD4 BD1
  IC50: ≥ 10 µM

## CNC(=O)c1[nH]c(C(=O)NC2CCC2)cc1OC(C)c1ccc(Cl)cn1 (single isomer, unassigned) [Example 33, 3-(1-(5-chloropyridin-2-yl)ethoxy)-N^5-cyclobutyl-N^2-methyl-1H-pyrrole-2,5-dicarboxamide]
[1]
  Plasma Stability (% remaining at 120 minutes) Rat: 85%

## CNC(=O)c1[nH]c(C(=O)NC2CCC2)cc1OC(C)c1ccc(Cl)cc1F (single isomer, unassigned) [Example 35]
[1]
  Plasma Stability (% remaining at 120 minutes) Rat: 67%
[2]
  IV T1/2: 30 min
  PO F (%): 65%

## CNC(=O)c1[nH]c(C(=O)NC2CCC2)cc1OC(C)c1ccccc1F (single isomer, unassigned) [Example 43, N^5-cyclobutyl-3-(1-(2-fluorophenyl)ethoxy)-N^2-methyl-1H-pyrrole-2,5-dicarboxamide]
[1]
  Plasma Stability (% remaining at 120 minutes) Rat: 20%
[2]
  IV T1/2: 30 min
  PO F (%): 58%

## CCNC(=O)c1cc(OC(C)c2ccc(Br)cc2)c(C(=O)NC)[nH]1 (single isomer, unassigned) [Example 49, 3-(1-(4-bromophenyl)ethoxy)-N^5-ethyl-N^2-methyl-1H-pyrrole-2,5-dicarboxamide]
[1]
  Plasma Stability (% remaining at 120 minutes) Rat: 90%

## CCNC(=O)c1cc(OC(C)c2ccc(I)cc2)c(C(=O)NC)[nH]1 (single isomer, unassigned) [Example 51, N^5-ethyl-3-(1-(4-iodophenyl)ethoxy)-N^2-methyl-1H-pyrrole-2,5-dicarboxamide]
[1]
  Plasma Stability (% remaining at 120 minutes) Rat: 93%

## CCNC(=O)c1cc(OC(C)c2c(C)cccc2C)c(C(=O)NC)[nH]1 (single isomer, unassigned) [Example 64, 3-(1-(2,6-dimethylphenyl)ethoxy)-N^5-ethyl-N^2-methyl-1H-pyrrole-2,5-dicarboxamide]
BRD4 BD1
  IC50: ≥ 10 µM

## C#Cc1ccc(C(C)Oc2cc(C(=O)NCC)[nH]c2C(=O)NC)cc1 (single isomer, unassigned) [Example 70, N^5-ethyl-3-(1-(4-ethynylphenyl)ethoxy)-N^2-methyl-1H-pyrrole-2,5-dicarboxamide]
[1]
  Plasma Stability (% remaining at 120 minutes) Rat: 92%
[2]
  bioavailability: 44%

## CNC(=O)c1[nH]c(C(=O)N[C@H]2CC[C@H](O)CC2)cc1O[C@@H](C)c1ccnnc1 (single isomer, unassigned) [Example 92, N^5-(4-hydroxycyclohexyl)-N^2-methyl-3-(1-(pyridazin-4-yl)ethoxy)-1H-pyrrole-2,5-dicarboxamide]
BRD4 BD1
  IC50: ≥ 10 µM

## CNC(=O)c1[nH]c(C(=O)NC2CCC2)cc1OC(C)c1ccccc1 (single isomer, unassigned) [Example 102, N^5-cyclobutyl-N^2-methyl-3-(1-phenylethoxy)-1H-pyrrole-2,5-dicarboxamide]
[2]
  bioavailability: 13%

## CNC(=O)c1[nH]c(-c2ncc(C)[nH]2)cc1O[C@H](C)c1ccccc1 [Example 24, (R)—N-methyl-5-(5-methyl-1H-imidazol-2-yl)-3-(1-phenylethoxy)-1H-pyrrole-2-carboxamide]
BRD4 BD2; listed as 24 (2)
  BRD4 BD2% Activity Remaining @ 10 uM: 78%
BRD4 BD2
  Fold selectivity: X (Fold >2 and ≤50)
BRD4 BD2; listed as 24 (2)*
  Fold selectivity: — (Fold ≥0 and ≤2)

## CCNC(=O)c1cc(OC(c2ccccc2)c2ccccc2)c(C(=O)NC)[nH]1 [Example 53, 3-(benzhydryloxy)-N^5-ethyl-N^2-methyl-1H-pyrrole-2,5-dicarboxamide]
[1]
  Plasma Stability (% remaining at 120 minutes) Rat: 91%

## CNC(=O)c1[nH]c(C(=O)NCC(F)(F)F)cc1O[C@@H](C)c1ccccc1 [Example 54]
[1]
  Plasma Stability (% remaining at 120 minutes) Rat: 93%

## CNC(=O)c1[nH]c(C(=O)NC2CC2)cc1O[C@@H](C)c1ccccc1F [Example 59, (S)—N^5-cyclopropyl-3-(1-(2-fluorophenyl)ethoxy)-N^2-methyl-1H-pyrrole-2,5-dicarboxamide]
[1]
  Plasma Stability (% remaining at 120 minutes) Rat: 50%
[2]
  IV T1/2: 66 min
  PO F (%): 70%

## CNC(=O)c1[nH]c(C(=O)NC(C)C)cc1O[C@@H](C)c1ccc(Cl)cc1 [Example 61, (S)-3-(1-(4-chlorophenyl)ethoxy)-N^5-isopropyl-N^2-methyl-1H-pyrrole-2,5-dicarboxamide]
[1]
  Plasma Stability (% remaining at 120 minutes) Rat: 81%

## CNC(=O)c1[nH]c(C(=O)NC2CC2)cc1O[C@@H](C)c1ccc(Cl)cc1 [Example 62, (S)-3-(1-(4-chlorophenyl)ethoxy)-N^5-cyclopropyl-N^2-methyl-1H-pyrrole-2,5-dicarboxamide]
[1]
  Plasma Stability (% remaining at 120 minutes) Rat: 82%
[2]
  bioavailability: 8%

## CNC(=O)c1[nH]c(-c2ncc(C)[nH]2)cc1O[C@@H](C)c1ccccc1F [Example 68, (S)-3-(1-(2-fluorophenyl)ethoxy)-N-methyl-5-(5-methyl-1H-imidazol-2-yl)-1H-pyrrole-2-carboxamide]
[1]
  Plasma Stability (% remaining at 120 minutes) Rat: 75%

## CNC(=O)c1[nH]c(-c2ncc(C)[nH]2)cc1O[C@@H](C)c1ccc(Cl)cc1 [Example 69, (S)-3-(1-(4-chlorophenyl)ethoxy)-N-methyl-5-(5-methyl-1H-imidazol-2-yl)-1H-pyrrole-2-carboxamide]
[1]
  Plasma Stability (% remaining at 120 minutes) Rat: 83%

## CCNC(=O)c1[nH]c(C(=O)NC)c(O[C@@H](C)c2ccccc2F)c1Br [Example 72, (S)-3-bromo-N^2-ethyl-4-(1-(2-fluorophenyl)ethoxy)-N^5-methyl-1H-pyrrole-2,5-dicarboxamide]
[1]
  Plasma Stability (% remaining at 120 minutes) Rat: 9%

## CCNC(=O)c1[nH]c(C(=O)NC)c(O[C@@H](C)c2ccccc2F)c1C [Example 74]
BRD4 BD1
  IC50: ≥ 10 µM
BRD4 BD2
  Fold selectivity: X (Fold >2 and ≤50)
  IC50: 1 to 10 µM
